Consider six compounds from PubChem BioAssay (NCI).

Test systems include NCI/ADR-RES ovarian; HL-60(TB) leukemia; SK-OV-3 ovarian; U251 CNS; NCI-H460 lung; HT29 colon; UACC-257 melanoma; SF-539 CNS; HOP-92 NSCLC; DU-145 prostate.
Holding throughout (test): NCI-60 cell line screen, 48 h

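Five concentrations, 48 hours, 96-well plates. At the GI50, growth is halved. At the TGI there is no net growth.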 Where only a bound is given, the exact number is not on record here.

For `O=S(C(c1ccccc1)=P(c1ccccc1)(c1ccccc1)c1ccccc1)c1ccc(Cl)cc1` (stereo not given), the TGI with NCI/ADR-RES ovarian was > 100 µM; in the test with HL-60(TB) leukemia, 45 µM; in the test with SK-OV-3 ovarian it was 50.6 µM; with U251 CNS, > 100 µM; with NCI-H460 lung, > 100 µM; in the test with HT29 colon it was > 100 µM. Besides, the TGI in the test on UACC-257 melanoma is > 100 µM; with SF-539 CNS it was > 100 µM; in the test on HOP-92 NSCLC, 42.2 µM; in the test on DU-145 prostate it was 42.7 µM.

`COc1ccc2c3c([nH]c2c1)[C@H](C=C(C)C)N1C(=O)[C@@H]2CCCN2C(=O)[C@@H]1C3`: the TGI is > 100 µM in the test on NCI/ADR-RES ovarian; > 100 µM in the test with HL-60(TB) leukemia; 95.9 µM in the test with SK-OV-3 ovarian; > 100 µM in the test on U251 CNS; > 100 µM with NCI-H460 lung; > 100 µM in the test with HT29 colon. Also, the TGI was > 100 µM in the test on UACC-257 melanoma, 83 µM in the test with SF-539 CNS, > 100 µM with HOP-92 NSCLC and > 100 µM in the test with DU-145 prostate.

Take `O=C1CNc2cc(N3CCCCC3)ccc2N1`: the TGI with NCI/ADR-RES ovarian is > 100 µM; in the test with HL-60(TB) leukemia it was > 100 µM; in the test on SK-OV-3 ovarian, > 100 µM; with U251 CNS, > 100 µM; in the test on NCI-H460 lung, > 100 µM; in the test on HT29 colon, 24.4 µM. The TGI in the test with UACC-257 melanoma, with SF-539 CNS, with HOP-92 NSCLC and with DU-145 prostate was > 100 µM in each case.

As to `Clc1cccc(/C=c2\nc(-c3ccccc3)n3c2nc2ccccc23)c1`, the TGI in the test with NCI/ADR-RES ovarian, in the test with HL-60(TB) leukemia, in the test with SK-OV-3 ovarian, with U251 CNS, with NCI-H460 lung and in the test on HT29 colon was > 100 µM each time. Also, the TGI in the test with UACC-257 melanoma was > 100 µM; in the test with SF-539 CNS, > 100 µM; with HOP-92 NSCLC, 48.4 µM; in the test with DU-145 prostate it was > 100 µM.

As for `CN(CCCNC(=O)c1nn(-c2ccccc2)c2c1Cc1ccccc1-2)CCCNC(=O)c1nn(-c2ccccc2)c2c1Cc1ccccc1-2`, the TGI was 3.37 µM in the test with NCI/ADR-RES ovarian; 2.5 µM in the test on HL-60(TB) leukemia; 3.23 µM in the test on SK-OV-3 ovarian; 2.82 µM in the test with U251 CNS; 3.26 µM with NCI-H460 lung; 3.42 µM in the test on HT29 colon. Moreover, the TGI stood at 3.28 µM in the test on UACC-257 melanoma, 2.97 µM with SF-539 CNS, 3.26 µM in the test with HOP-92 NSCLC and 3.21 µM in the test with DU-145 prostate.

For the compound `CS(=O)(=O)Nc1cccc(-c2ccc3ncnc(Nc4cncc(Cl)c4)c3c2)c1`, the GI50 in the test on NCI/ADR-RES ovarian was 13.7 µM; with HL-60(TB) leukemia it was 2660 nM; in the test with SK-OV-3 ovarian, 1340 nM; in the test on U251 CNS, 1640 nM; in the test on NCI-H460 lung it was 3.18 µM; with HT29 colon, 1850 nM. Moreover, the GI50 was 2080 nM with UACC-257 melanoma, 2060 nM with SF-539 CNS, 1830 nM with HOP-92 NSCLC and 1160 nM in the test with DU-145 prostate. Besides, the TGI is > 100 µM in the test on NCI/ADR-RES ovarian; 9.2 µM in the test with HL-60(TB) leukemia; 4.99 µM with SK-OV-3 ovarian; 4.18 µM in the test with U251 CNS; > 100 µM in the test with NCI-H460 lung; 4.65 µM with HT29 colon. The TGI was 4.82 µM in the test with UACC-257 melanoma, 5.82 µM in the test on SF-539 CNS, 26.8 µM in the test on HOP-92 NSCLC and > 100 µM in the test on DU-145 prostate.
